# Experimental data as given in BindingDB's records for doi:10.3109/14756366.2013.793184 (Nycomed, 2014).
# Several values for one entry are separate records, joined by “and”; a condition that tells them apart may be missing. Equal entries are not always repeated.
# Target: Inosine-5'-monophosphate dehydrogenase 2 (Homo sapiens, UniProt P12268)
# Experiment: Enzyme Assay
# Details: pH 8; 37 °C
# Protocol: The reaction was initiated by the addition of 300 μM of IMP and 500 μM of NAD+ and the assay was allowed to proceed at 37 °C for 50 min before stopping by the addition of 15 mM GMP. The NADH generated was measured by reading the absorbance at 340 nm.
row,Compound,IC50
1,"COc1cc(N/C(=N/C#N)Nc2cccc(-c3ccc(C#N)cc3)c2)ccc1C#N [IMPDH II inhibitor, 59]",< 30 µM
2,"COc1cc(N/C(=N/C#N)Nc2cccc(-c3ccccc3F)c2)ccc1C#N [IMPDH II inhibitor, 54]",< 30 µM
3,"CCC(CC#N)OC(=O)N[C@@H](C)c1cccc(Nc2nc3ccc(-c4ccc(C#N)c(OC)c4)cc3[nH]2)c1 (some centres not stated) [IMPDH II inhibitor, 44]",< 30 µM
4,"CCC(CC#N)OC(=O)N[C@@H](C)c1cccc(N/C(=N/C#N)Nc2ccc(OC)c(OC)c2)c1 (some centres not stated) [IMPDH II inhibitor, 33]",5.6 µM
5,"CCC(CC#N)OC(=O)N[C@@H](C)c1cccc(NC(=O)Nc2ccc(OC)c(OC)c2)c1 (some centres not stated) [IMPDH II inhibitor, 13]",0.23 µM
6,"CCC(CC#N)OC(=O)N[C@@H](C)c1cccc(NC(=O)Nc2ccc3c(=O)ccoc3c2)c1 (some centres not stated) [IMPDH II inhibitor, 27]",< 10 µM
7,CCC(CC#N)OC(=O)N[C@@H](C)c1cccc(NC(=O)Nc2ccc(C#N)c(OC)c2)c1 (some centres not stated) [VX-148 (3)],0.38 µM
8,"COc1cc(N/C(=N/C#N)Nc2cccc(-c3cccc(F)c3)c2)ccc1C#N [IMPDH II inhibitor, 55]",< 30 µM
9,"COc1cc(N/C(=N/C#N)Nc2cccc(/C=C/C(=O)O)c2)ccc1C#N [IMPDH II inhibitor, 51]",< 30 µM
10,"CCC(CC#N)OC(=O)N[C@@H](C)c1cccc(NC(=O)Nc2ccc(N3CCOCC3)c(OC)c2)c1 (some centres not stated) [IMPDH II inhibitor, 15]",< 30 µM
11,"COc1cc(N/C(=N/C#N)Nc2cccc(-c3cccc(C(=O)O)c3)c2)ccc1C#N [IMPDH II inhibitor, 58]",< 30 µM
12,"COc1cc(N/C(=N/C#N)Nc2cccc(Cc3nnn(C)n3)c2)ccc1C#N [IMPDH II inhibitor, 49]",< 30 µM
13,"COc1cc(N/C(=N/C#N)Nc2cccc(-c3nnn(C)n3)c2)ccc1C#N [IMPDH II inhibitor, 47]",< 30 µM
14,"COc1cc(N/C(=N/C#N)Nc2cccc(-c3cccc(C(F)(F)F)c3)c2)ccc1C#N [IMPDH II inhibitor, 57]",< 30 µM
15,"CCC(CC#N)OC(=O)N[C@@H](C)c1cccc(NC(=O)Nc2ccc(C3CCOCC3)c(OC)c2)c1 (some centres not stated) [IMPDH II inhibitor, 17]",< 30 µM
16,"CCC(CC#N)OC(=O)N[C@@H](C)c1cccc(NC(=O)Nc2ccc(C)c(OC)c2)c1 (some centres not stated) [IMPDH II inhibitor, 14]",19 µM
17,"CCC(CC#N)OC(=O)N[C@@H](C)c1cccc(NC(=O)Nc2ccc3c(c2)C(C)CO3)c1 (some centres not stated) [IMPDH II inhibitor, 24]",< 30 µM
18,"CCC(CC#N)OC(=O)N[C@@H](C)c1cccc(NC(=O)Nc2ccc3c(=O)cc(C)oc3c2)c1 (some centres not stated) [IMPDH II inhibitor, 26]",< 30 µM
19,COc1cc(NC(=O)Nc2cccc(CNC(=O)OC3CCOC3)c2)ccc1-c1cnco1 (configuration not stated) [VX-497 (2)],0.0035 µM
20,"CCC(CC#N)OC(=O)N[C@@H](C)c1cccc(NC(=O)Nc2ccc(C3=CCOCC3)c(OC)c2)c1 (some centres not stated) [IMPDH II inhibitor, 16]",3.5 µM
21,"COc1cc(N/C(=N/C#N)Nc2cccc(-c3nnnn3C)c2)ccc1C#N [IMPDH II inhibitor, 48]",< 30 µM
22,"COc1cc(N/C(=N/C#N)Nc2cccc(-c3cccc(C#N)c3)c2)ccc1C#N [IMPDH II inhibitor, 60]",< 30 µM
23,"COc1cc(N/C(=N/C#N)Nc2cccc(OCC(=O)C(C)=O)c2)ccc1C#N [IMPDH II inhibitor, 45]",< 30 µM
24,"CCC(CC#N)OC(=O)N[C@@H](C)c1cccc(NC(=O)COc2ccc(C#N)c(OC)c2)c1 (some centres not stated) [IMPDH II inhibitor, 38]",< 30 µM

row,Compound,IC50
1,"CCC(CC#N)OC(=O)N[C@@H](C)c1cccc(N/C(=N/C#N)Nc2ccc(C#N)c(OC)c2)c1 (some centres not stated) [IMPDH II inhibitor, 32]",3 µM
2,"CCC(CC#N)OC(=O)N[C@@H](C)c1cccc(NCC(=O)Nc2ccc(OC)c(OC)c2)c1 (some centres not stated) [IMPDH II inhibitor, 36]",< 30 µM
3,"CCC(CC#N)OC(=O)N[C@@H](C)c1cccc(N2C(=O)CN(c3ccc(C#N)c(OC)c3)C2=O)c1 (some centres not stated) [IMPDH II inhibitor, 42]",25 µM
4,"CCC(CC#N)OC(=O)N[C@@H](C)c1cccc(NC(=O)c2cncc(-c3ccc(C#N)c(OC)c3)n2)c1 (some centres not stated) [IMPDH II inhibitor, 43]",< 30 µM
5,"CCC(CC#N)OC(=O)N[C@@H](C)c1cccc(NC(=O)Nc2ccc3cc(OC)c(OC)cc3c2)c1 (some centres not stated) [IMPDH II inhibitor, 23]",< 30 µM
6,"CCC(CC#N)OC(=O)N[C@@H](C)c1cccc(NC(=O)N2CCN(c3ccc(C#N)c(OC)c3)CC2)c1 (some centres not stated) [IMPDH II inhibitor, 41]",< 30 µM
7,"CCC(CC#N)OC(=O)N[C@@H](C)c1cccc(NC(=O)Nc2ccc3c(c2)OCC3)c1 (some centres not stated) [IMPDH II inhibitor, 18]",10 µM
8,"COc1cc(N/C(=N/C#N)Nc2cccc(-c3ccc(F)cc3)c2)ccc1C#N [IMPDH II inhibitor, 56]",< 30 µM
9,"CCC(CC#N)OC(=O)N[C@@H](C)c1cccc(NC(=N)Nc2ccc(OC)c(OC)c2)c1 (some centres not stated) [IMPDH II inhibitor, 31]",< 30 µM
10,"COc1cc(N/C(=N/C#N)Nc2cccc(CCC(=O)O)c2)ccc1C#N [IMPDH II inhibitor, 50]",< 30 µM
11,"CCC(CC#N)OC(=O)N[C@@H](C)c1cccc(NC(=O)Nc2ccc3ncc(OC)nc3c2)c1 (some centres not stated) [IMPDH II inhibitor, 22]",< 30 µM
12,"COc1cc(N/C(=N/C#N)Nc2cccc(CC(=O)O)c2)ccc1C#N [IMPDH II inhibitor, 52]",< 30 µM
13,"CCC(CC#N)OC(=O)N[C@@H](C)c1cccc(NC(=N)Nc2ccc(C#N)c(OC)c2)c1 (some centres not stated) [IMPDH II inhibitor, 30]",< 30 µM and 30 µM
14,"CCC(CC#N)OC(=O)N[C@@H](C)c1cccc(NC(=O)NS(=O)(=O)c2ccc(OC)c(OC)c2)c1 (some centres not stated) [IMPDH II inhibitor, 40]",< 30 µM
15,"CCC(CC#N)OC(=O)N[C@@H](C)c1cccc(NC(=O)Nc2ccc3c(c2)OCO3)c1 (some centres not stated) [IMPDH II inhibitor, 20]",> 30 µM
16,"COc1cc(N/C(=N/C#N)Nc2cccc(OCC(=O)O)c2)ccc1C#N [IMPDH II inhibitor, 46]",< 30 µM
17,"CCC(CC#N)OC(=O)N[C@@H](C)c1cccc(NC(=O)Nc2ccc3ncnc(OC)c3c2)c1 (some centres not stated) [IMPDH II inhibitor, 25]",< 30 µM
18,"CCC(CC#N)OC(=O)N[C@@H](C)c1cccc(NC(=O)COc2ccc(OC)c(OC)c2)c1 (some centres not stated) [IMPDH II inhibitor, 39]",< 30 µM
19,"CCC(CC#N)OC(=O)N[C@@H](C)c1cccc(N/C(=C/[N+](=O)[O-])Nc2ccc(C#N)c(OC)c2)c1 (some centres not stated) [IMPDH II inhibitor, 34]",< 30 µM
20,"CCC(CC#N)OC(=O)N[C@@H](C)c1cccc(N/C(=C/[N+](=O)[O-])Nc2ccc(OC)c(OC)c2)c1 (some centres not stated) [IMPDH II inhibitor, 35]",< 30 µM
21,"CCC(CC#N)OC(=O)N[C@@H](C)c1cccc(NC(=O)Nc2ccc3c(c2)ncn3C)c1 (some centres not stated) [IMPDH II inhibitor, 21]",14 µM
22,"CCC(CC#N)OC(=O)N[C@@H](C)c1cccc(NC(=O)CNc2ccc(C#N)c(OC)c2)c1 (some centres not stated) [IMPDH II inhibitor, 37]",< 30 µM
23,"COc1cc(N/C(=N/C#N)Nc2cccc(C(=O)O)c2)ccc1C#N [IMPDH II inhibitor, 53]",< 30 µM
